Key:
Format in all cases: biochemical, bovine
[1] = target: T1, BSA–fructose (Fru) system (Bos taurus, UniProt P02769); experiment: Anti-glycation: glycation products in BSA–Fru system; conditions: 0.200 mg mL^−1; end stage
Experimental: Considering that Monascus pigments (MPs) are usually applied in the form of a mixture, the extract of Monascus-fermented rice (a high content of six known Monascus pigments, Figure S2) was selected to evaluate the anti-glycation capacity of MPs in a reaction in vitro using BSA as a model protein glycation by Fru. Briefly, BSA and Fru were dissolved in PBS solution of pH 7.4, and their final concentrations were 10.0 mg mL^−1 and 0.5 M, respectively. Then, a series of MPs were added into the above system with final concentrations of 0.005, 0.025, 0.050, 0.100, 0.150, and 0.200 mg mL^−1. After filtered through a sterile 0.22 μm membrane, the reaction mixture was incubated at 323 K for 24 h. The glycosylation products, namely fructosamine (in the early stage), α-dicarbonyl compounds (in the middle stage), and fluorescent AGEs (in the end stage), were detected according to our previous report. Here, AG was a positive control.

[2] = target: T1, BSA–fructose (Fru) system; experiment: Total carbonyl and thiol group content of glycated BSA; conditions: 0.200 mg mL^−1
Experimental: A reported method was adopted and a slight modification was made to determine the protein carbonyl group content (PCO). Briefly, 100 μL of native BSA solution or sample solution acquired in Section 2.4.1 was incubated with DNPH solution (400 μL, 10 mM, dissolved in 2.0 M HCl) for 1 h at room temperature, with vortexing every 10 min. The sample solution without DNPH was regarded as the blank group. Then, 1000 μL of trichloroacetic acid (TCA) solution (20% (w/v)) was added, and the resulting mixture was kept at 277 K for 10 min, followed by centrifugation (10,000 rpm, 10 min, 277 K). The residue was extracted with ethanol/ethyl acetate (1:1, v/v) three times, and subsequently suspended and mixed thoroughly in 1000 μL of guanidine hydrochloride (6.0 M, pH 6.6), followed by incubating at 310 K for 15 min. The UV absorbance was recorded at 370 nm on an Infinite® M200 PRO plate reader (Tecan, Männedorf, Switzerland). The total protein carbonyl group content was calculated using the following equation:(4) PCO(nmol/mg protein)=Asample−AblankVreaction/ε1dVsampleCpro×1000 where Asample and Ablank are the absorbances of a tested sample with or without DNPH, respectively. ε1 represents the absorption coefficient of 22,000 M^−1cm^−1, and d is the cuvette length (0.5 cm). […]
The content of the free SH group was assessed using Ellman’s method with slight changes. […]

[3] = target: T1, BSA–fructose (Fru) system; experiment: Structural analysis of glycated BSA (CD, ThT cross-β structure)
Experimental: The changes in the secondary structures of the proteins were determined using the CD spectroscopy method on a New MOS-450 spectropolarimeter (Biologic, Seyssinet-Pariset, France). The spectra were collected over the far-UV range of 200–260 nm using a quartz cell (with an inner diameter of 1 mm) under an atmosphere of nitrogen at room temperature. Each spectrum was the average of at least three consecutive scans at a scan speed of 100 nm min^−1 with a bandwidth of 1 nm, and it was corrected for the buffer signal. The proportion of different secondary structures was calculated using the online CONTIN program (http://dichroweb.cryst.bbk.ac.uk/html/home.shtml, accessed on 4 April 2023).
The secondary structure contents of BSA before and after glycosylation were determined using CD measurement referring to the experimental procedure in Section 2.3.2.
As a popular fluorescent probe for protein aggregation, thioflavin T (ThT) was used for the detection of the amyloid β-structure of glycated BSA [29, 30]. The samples were treated with ThT (a final concentration of 0.016 mg mL^−1) at room temperature for 1 h in the dark. The ThT fluorescence intensity (excitation: 435 nm; emission: 485 nm) of the sample was recorded on a spectrofluorometer.

[4] = target: T1, BSA–fructose (Fru) system; experiment: Surface hydrophobicity of glycated BSA (BPB, ANS)

T1 sequence (P02769 25-607): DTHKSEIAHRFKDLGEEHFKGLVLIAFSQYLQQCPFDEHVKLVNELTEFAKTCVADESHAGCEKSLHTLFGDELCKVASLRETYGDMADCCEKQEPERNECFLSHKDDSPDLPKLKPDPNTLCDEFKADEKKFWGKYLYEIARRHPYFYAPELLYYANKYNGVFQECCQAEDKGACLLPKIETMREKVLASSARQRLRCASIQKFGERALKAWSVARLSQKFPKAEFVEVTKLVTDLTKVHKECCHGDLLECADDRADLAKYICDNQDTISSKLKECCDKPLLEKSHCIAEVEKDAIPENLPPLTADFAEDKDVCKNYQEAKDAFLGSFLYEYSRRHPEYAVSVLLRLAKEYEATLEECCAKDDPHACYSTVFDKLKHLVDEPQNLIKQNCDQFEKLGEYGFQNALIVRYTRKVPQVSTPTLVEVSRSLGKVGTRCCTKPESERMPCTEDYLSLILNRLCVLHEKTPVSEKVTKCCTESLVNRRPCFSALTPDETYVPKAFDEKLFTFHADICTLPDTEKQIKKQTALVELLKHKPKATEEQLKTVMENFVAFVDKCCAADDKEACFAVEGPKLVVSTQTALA

N=C(N)NN [AG, aminoguanidine]
inhibition rate of fluorescent AGE formation [1]: 75.7% | free SH group content of glycated BSA after treatment ([2]; glycated BSA 2.3, native BSA 3.6): 2.7 µmol/g | carbonyl group content of glycated BSA after treatment ([2]; glycated BSA 35.6, native BSA 2.5): 15.7 nmol/mg | inhibition rate against generation of cross-β structure (ThT) ([3]; 0.005 mg mL^−1): 27.6% | inhibition rate against generation of cross-β structure (ThT) ([3]; 0.200 mg mL^−1): 41.4% | α-helical structure content of treated glycated BSA (CD) ([3]; glycated BSA 47.8%, native BSA 67.6%): 58.3% | change of ANS fluorescence intensity of glycated BSA ([4]; ANS binding): increased slightly | change of BPB content bound to glycated BSA (surface hydrophobicity) ([4]; BPB binding): increased
